What was measured:
PANC02 cells = assay: In vivo efficacy study, subcutaneous PANC02 tumour model; design: species or system C57BL/6 mice; conditions: 60 mg/kg BW gemcitabine IP, 3 times/week
Description: Cultures of PANC02 cells were harvested using a 0.05% trypsin solution, washed twice in sterile PBS and resuspended in sterile PBS at a concentration of 30 x 10^6 cells per mL. The viable cells were counted by using the Muse® Cell Analyzer. The mice (n = 56) were inoculated with 100 µL of the cell suspension in the right hind limb. Each mouse was randomly assigned to one of 8 groups (n = 6-8 mice per group) receiving a different treatment (Table 2). Tumour growth of the subcutaneous model was evaluated with calliper measurements from the moment the tumours became palpable and this three times a week before treatment and daily during treatment. The tumour volume was calculated by means of formula V = 0.5 x ab^2, with a and b being the long and short axes of the tumour, respectively. Table 2 - Group treatment assignment
Treatment was administered during 10 days, starting 19 days after tumour inoculation when tumours had reached a volume of approximately 300-400 mm^3. The first day of treatment was assigned "day 1". […] For both extracts the total amount of colchicine and its derivatives (calculated as colchicine) was the same, but the amount of colchicine itself in the extracts was different. […] To evaluate the effect of the treatment, tumour volume was measured daily during treatment and the mice were sacrificed on day 11.
Results were expressed as mean values of parameters ± standard error (SE). […]

cancer cells [1] = conditions: literature; cited from earlier work
cancer cells [2] = conditions: literature comparison with colchicine; cited from earlier work

Q: Which “% TGI (7 days)” value (PANC02 cells; day 7) does the source give for `Nc1ccn([C@@H]2O[C@H](CO)[C@@H](O)C2(F)F)c(=O)n1` [Gemcitabine, gemcitabine] here?
A: 90%

Q: What about the “% TGI (10 days)” value (PANC02 cells; day 10) of the same compound?
A: 99%

Q: With `COc1c(O[C@@H]2O[C@H](CO)[C@@H](O)[C@H](O)[C@H]2O)cc2c(c1OC)-c1ccc(OC)c(=O)cc1[C@@H](NC(C)=O)CC2` [Colchicoside] as the compound, how does the activity in vitro (cancer cells [1]) read?
A: not active

Q: For `COc1cc2c(c(OC)c1O)-c1ccc(OC)c(=O)cc1[C@@H](NC(C)=O)CC2` [2-O-demethylcolchicine], which in vivo potency (cancer cells [2]) is on record?
A: 13.8 µmol/kg

Q: For `COc1cc2c(c(OC)c1OC)-c1ccc(OC)c(=O)cc1[C@@H](NC(C)=O)CC2` [COL, colchicine], which in vivo potency (cancer cells [2]) is on record?
A: 0.4 µmol/kg

From patent publication EP3069725A1, “GLORIOSA SUPERBA L. EXTRACTS, COMPOSITIONS AND USE THEREOF” (priority 2015, dated 2016)
